Drawing on the OPERA property sets (Mansouri et al. 2018), this text covers solubility for 97 compounds.

≈ marks a conversion by molar mass, not a printed value.

Details in the first data set: not given
Usually solubility stands for the concentration that dissolves in the medium under given conditions. A high value points to a readily soluble substance. The compound `C=CCc1ccc(OCC(=O)O)c(OC)c1` yielded a solubility of 5.27 mM (≈ 1170 µg/mL).
The same measure, in the same setting: the figure for `CC(=O)OCCCOC(C)=O` is 624 mM (≈ 100000 µg/mL); for `O=C1OCc2ccc3ccccc3c21` it is 0.494 mM (≈ 91 µg/mL).
On the same count and under the same terms, to `Nc1ccc(C#Cc2ccc(N)cc2)cc1` belongs 3.69 mM (≈ 769 µg/mL); to `CCOC(OCC)C(C)=O`, 622 mM (≈ 91000 µg/mL); to `CNCCC(=O)O`, 882 mM (≈ 91000 µg/mL).
In turn, `Cc1cc(N)n(-c2ccccc2)n1` returned a solubility of 115 mM (≈ 20000 µg/mL).
Still for that read-out and setting: the figure for `Cn1c(=O)[nH]n(-c2ccccc2)c1=O` is 1.05 mM (≈ 200 µg/mL); for `NC(=S)SCC(=O)O` it is 179 mM (≈ 27000 µg/mL).
Same read-out and setting: to `O=c1cc(Br)c2ccccc2o1` belongs 22.2 mM (≈ 5000 µg/mL); to `C[C@@H](O)CCCC=O`, 344 mM (≈ 40000 µg/mL); to `CC(C)CC(c1ccc(O)cc1)c1ccc(O)cc1`, 0.429 mM (≈ 110 µg/mL).
Take `CC1(C)OC(=O)c2cc3ccccc3cc21`: the solubility was found to be 1.04 mM (≈ 220 µg/mL).
`Cc1cc(C)c(C)c(C)n1` returned a solubility of 49.3 mM (≈ 6670 µg/mL).
Same read-out and setting: the figure for `COc1ccc(NC(=N)Nc2ccc(OC)cc2)cc1` is 1.84 mM (≈ 500 µg/mL); for `O=C(c1ccccc1I)N(O)c1ccccc1` it is 0.295 mM (≈ 100 µg/mL); for `C[C@H](NC(=O)c1ccccc1)C(=O)O` (racemic) it is 20.7 mM (≈ 4000 µg/mL).
Still for that read-out and setting: to `O=C(O)CCCNC(=O)c1ccccc1` belongs 62.7 mM (≈ 13000 µg/mL).
The same measure, in the same setting: the figure for `CCOc1ccc(NC(=O)CO)cc1` is 7.84 mM (≈ 1530 µg/mL); for `COCCCCC=O` it is 2870 mM (≈ 333000 µg/mL).
The compound `CCOC(OCC)C(Cl)(Cl)Cl` gave a solubility of 22.6 mM (≈ 5000 µg/mL).

The same data set, now with this note: 20 °C.
The compound `Cn1c(=O)ncc2nccnc21` displayed a solubility of 42.5 mM (≈ 6900 µg/mL).
The same measure, in the same setting: the figure for `CN(C)c1nc2c[nH]cnc-2n1` is 40.9 mM (≈ 6670 µg/mL); for `O=C(O)c1occ(Br)c1Br` it is 8.15 mM (≈ 2200 µg/mL).
Regarding `NC(=S)Nc1cccc([N+](=O)[O-])c1`, the solubility was determined as 35.5 mM (≈ 7000 µg/mL).
The same measure, in the same setting: to `COc1c(C(=O)O)cc(C(=O)O)cc1C(=O)O` belongs 29.1 mM (≈ 7000 µg/mL).
The same measure, in the same setting: to `CC(=O)Nc1ccc(C)cc1F` belongs 18.2 mM (≈ 3040 µg/mL); to `O=C1C=CC(=NO)C=C1`, 28.4 mM (≈ 3500 µg/mL); to `Cn1c(=O)c2nccnc2n(C)c1=O`, 34.7 mM (≈ 6670 µg/mL).
The same measure, in the same setting: the figure for `NC(=O)C(Br)(Br)Br` is 54.1 mM (≈ 16000 µg/mL).
The compound `CC(=O)Nc1ccc(Cl)cc1C` registered a solubility of 4.9 mM (≈ 900 µg/mL).
Still for that read-out and setting: to `O=C(O)c1c(Cl)ccc2ccccc12` belongs 4.84 mM (≈ 1000 µg/mL); to `CC(O)C(C)Cl` (configuration not stated), 613 mM (≈ 66600 µg/mL).
Still for that read-out and setting: to `Nc1ncnc2c1ncn2[C@@H]1O[C@H](COP(=O)(O)O)[C@@H](O)[C@H]1O` belongs 28.8 mM (≈ 10000 µg/mL); to `O=C(O)C(I)=C(Br)I`, 51.4 mM (≈ 20700 µg/mL); to `O=C(Nc1ccccc1)C(Cl)Cl`, 0.441 mM (≈ 90 µg/mL).
On to `C=CCCCN=C=S`, for which the solubility worked out at 1.26 mM (≈ 160 µg/mL).
Same read-out and setting: to `c1ccc2c3c(ccc2c1)Sc1ccc2ccccc2c1N3` belongs 1.24e-05 mM (≈ 0.0037 µg/mL); to `CN(CCCCC(=O)O)S(=O)(=O)c1ccccc1`, 27.6 mM (≈ 7500 µg/mL).
On the same count and under the same terms, the figure for `O=C(O)CC(SC(CC(=O)O)C(=O)O)C(=O)O` (configuration not stated) is 323 mM (≈ 86000 µg/mL); for `Cn1cc2nccnc2nc1=O` it is 123 mM (≈ 20000 µg/mL); for `CCCOC(=O)c1c(C(=O)O)cccc1[N+](=O)[O-]` it is 4.5 mM (≈ 1140 µg/mL).
On the same count and under the same terms, the figure for `COc1ncnc2nccnc12` is 77.1 mM (≈ 12500 µg/mL); for `CCOCC(N)C(=O)O` (configuration not stated) it is 3340 mM (≈ 445000 µg/mL); for `CC(C)COC(=O)c1c(C(=O)O)cccc1[N+](=O)[O-]` it is 0.898 mM (≈ 240 µg/mL).
The compound `CCOC(=O)c1c(C)oc(C)c(C(=O)OCC)c1=O` displayed a solubility of 29.8 mM (≈ 8000 µg/mL).
Same read-out and setting: the figure for `O=C(O)C(Cl)=C(Br)Br` is 205 mM (≈ 54300 µg/mL).
Consider `COc1c(C(=O)O)oc2ccccc12`, for which the solubility is 1.3 mM (≈ 250 µg/mL).
The same measure, in the same setting: to `CCOC(=O)c1[nH]c(C=O)c(CC)c1C` belongs 1.91 mM (≈ 400 µg/mL).

The data set is the same for the next values; noted with them: 21 °C.
As for `NC(N)=N/C(N)=N/c1ccc2ccccc2c1`, the solubility is 2.82 mM (≈ 641 µg/mL).
For `Cc1cc(O)c(C(=O)O)cc1Cl`, the solubility came to 0.75 mM (≈ 140 µg/mL).

Still in this data set, the particulars now being: 22 °C.
`O=[N+]([O-])c1cccc(P(=O)(O)O)c1` yielded a solubility of 4830 mM (≈ 980000 µg/mL).
Take `CCOP(=O)(Cc1ccc(-c2nc3ccccc3s2)cc1)OCC`: the solubility was 0.0996 mM (≈ 36 µg/mL).
In turn, `O=C1CCCCCCCCN1` registered a solubility of 84.4 mM (≈ 13100 µg/mL).

The data set is the same for the next values; noted with them: 23 °C.
As for `CC(=O)C1(C)CO1` (configuration not stated), the solubility worked out at 2400 mM (≈ 240000 µg/mL).
On the same count and under the same terms, the figure for `O=C(O)c1ccccc1C1OC(=O)c2ccccc21` (configuration not stated) is 0.787 mM (≈ 200 µg/mL); for `O=S(=O)(c1ccccc1O)c1ccccc1O` it is 0.48 mM (≈ 120 µg/mL).

Staying with this data set, now noted: 24 °C.
The compound `O=NC1=C(NO)CCC1` showed a solubility of 10.1 mM (≈ 1300 µg/mL).

Staying with this data set, now noted: 25 °C.
Compound `CCCCCCCCCCCCNC(=O)c1cccnc1` showed a solubility of 0.62 mM (≈ 180 µg/mL).
The same measure, in the same setting: the figure for `CCOC(=O)N1CCN(C(=O)OCC)CC1` is 187 mM (≈ 43000 µg/mL); for `CCCCCOC(=O)C(C)O` (configuration not stated) it is 62.4 mM (≈ 10000 µg/mL); for `CCCCCNC(=O)C(C)O` (configuration not stated) it is 414 mM (≈ 66000 µg/mL).
The same measure, in the same setting: the figure for `CCCCCCC(C(=O)O)C(=O)O` is 22 mM (≈ 4150 µg/mL); for `CCc1cc(C)cc(O)c1` it is 17 mM (≈ 2320 µg/mL).
Same read-out and setting: the figure for `CCCCCCCCOC(=O)C(C)O` (configuration not stated) is 53.4 mM (≈ 10800 µg/mL).
As for `CCCCCCCCCC(C(=O)O)C(=O)O`, the solubility was determined as 0.499 mM (≈ 115 µg/mL).
Still for that read-out and setting: the figure for `CCCCOCCC(=O)OC` is 51.2 mM (≈ 8200 µg/mL); for `O=C(O)Cc1cc(O)ccc1O` it is 5050 mM (≈ 850000 µg/mL).
On to `CCSC(=S)N[C@@H](CC(=O)O)C(=O)O`, for which the solubility worked out at 41.1 mM (≈ 9750 µg/mL).
The same measure, in the same setting: to `C[C@H](O)C(F)(F)F` belongs 2040 mM (≈ 233000 µg/mL); to `CCCCCCCOC(=O)c1cccnc1`, 1.81 mM (≈ 400 µg/mL).
The same measure, in the same setting: the figure for `CCc1nc2c(c(=O)n(C)c(=O)n2C)n1C` is 27 mM (≈ 6000 µg/mL); for `CC(CC(C)C(=O)O)C(=O)O` (configuration not stated) it is 350 mM (≈ 56000 µg/mL).
The same measure, in the same setting: to `O=C(O)c1ccc(NC(=O)c2cccnc2)cc1` belongs 0.826 mM (≈ 200 µg/mL).
`CCCCCCP(=O)(OCC)OCC` yielded a solubility of 2.7 mM (≈ 600 µg/mL).
On the same count and under the same terms, the figure for `CCCOCCC(=O)OC` is 233 mM (≈ 34000 µg/mL); for `CCCCCCCCCCCCCCNC(=O)C(C)O` (configuration not stated) it is 0.105 mM (≈ 30 µg/mL); for `CNC(CC(C)C)C(=O)O` (stereo in doubt) it is 306 mM (≈ 44400 µg/mL).
For `C=CC1=C(C)C(=Cc2[nH]c(Cc3[nH]c(C=C4NC(=O)C(C)=C4C=C)c(C)c3CCC(=O)O)c(CCC(=O)O)c2C)NC1=O`, the solubility amounted to 0.0154 mM (≈ 9 µg/mL).
`O=C1CNC(=S)N1c1ccccc1` showed a solubility of 0.572 mM (≈ 110 µg/mL).
On the same count and under the same terms, to `CCCCC(=O)NCCNC(=O)CCCC` belongs 15.3 mM (≈ 3500 µg/mL); to `CNC(=O)N(C)C(=O)CC#N`, 1480 mM (≈ 230000 µg/mL).
The same measure, in the same setting: to `COc1cc(Br)c2c(c1OC)C(=O)OC2` belongs 0.117 mM (≈ 32 µg/mL); to `CC(C)[C@H](NCCC#N)C(=O)O`, 75.2 mM (≈ 12800 µg/mL); to `Cc1nc(Br)[nH]c1[N+](=O)[O-]`, 16.2 mM (≈ 3330 µg/mL).
On the same count and under the same terms, the figure for `O=C(O)c1ccc2ccccc2n1` is 81.1 mM (≈ 14000 µg/mL); for `CCC(NC=O)C(=O)O` (configuration not stated) it is 256 mM (≈ 33600 µg/mL); for `CCCCCOP(=O)(OCC)OCC` it is 33.4 mM (≈ 7500 µg/mL).
Consider `C[C@@H](N)[C@@H](O)c1ccccc1`, for which the solubility is 132 mM (≈ 20000 µg/mL).

Staying with this data set, now noted: 26 °C.
As for `N#CCCN(CCC#N)[C@@H](CCC(=O)O)C(=O)O`, the solubility turned out to be 592 mM (≈ 150000 µg/mL).

The same data set, now with this note: 27 °C.
In turn, `c1ccc2c(c1)-c1cccc3cc4c(ccc5ccccc54)c-2c13` yielded a solubility of 3.31e-06 mM (≈ 0.001 µg/mL).
The same measure, in the same setting: the figure for `CCC(C)(C)NC(N)=O` is 96.8 mM (≈ 12600 µg/mL).

The data set is the same for the next values; noted with them: 30 °C.
With `CCn1c(=O)c2c(ncn2C)n(C)c1=O`, the solubility turned out to be 191 mM (≈ 39800 µg/mL).
The same measure, in the same setting: the figure for `COC(=O)c1ccc(O)c(Br)c1` is 0.684 mM (≈ 158 µg/mL); for `CN(C)C(=O)c1ccccc1C(=O)N(C)C` it is 3220 mM (≈ 710000 µg/mL).
Still for that read-out and setting: the figure for `O=C(O)Cc1c[nH]c(=O)[nH]c1=O` is 23.5 mM (≈ 4000 µg/mL); for `COC(=O)c1ccc(O)c(Cl)c1` it is 1.34 mM (≈ 250 µg/mL).
